Source: US9062124B2, “GIP-based mixed agonists for treatment of metabolic disorders and obesity” (priority 2008, dated 2015)
Read-outs that look alike come from different tables or passages of the source. Blank lines part the entries; values can stand above or below the compound they belong to. Where a SMILES comes first, the peptide text is derived from it. Bridges are numbered along the chain shown (N, C = ends). Where no end group is shown, it is not given here. Side-chain parts run from the residue outwards. [ ]: non-standard residue; d: D form. The star is where a group is joined. Ac‑Cys(PEG 40 kDa) = Cys whose alpha-amino group is acetylated and whose side chain carries a 40 kDa PEG; PEG 40 kDa = PEG (40 kDa) covalently attached to Cys; Palmitoyl = CCCCCCCCCCCCCCCC(=O)*; Aib = CC(C)(N)C(=O)O

What was measured:
Assay type in all cases: cell-based
glucagon receptor = target: T1, glucagon receptor (Homo sapiens, UniProt P47871); test: cAMP synthesis functional assay (firefly luciferase reporter in HEK293 cells), glucagon receptor
T1 construct: expressed in transfected cells; host or cells: HEK293
T1 sequence (P47871 26-477): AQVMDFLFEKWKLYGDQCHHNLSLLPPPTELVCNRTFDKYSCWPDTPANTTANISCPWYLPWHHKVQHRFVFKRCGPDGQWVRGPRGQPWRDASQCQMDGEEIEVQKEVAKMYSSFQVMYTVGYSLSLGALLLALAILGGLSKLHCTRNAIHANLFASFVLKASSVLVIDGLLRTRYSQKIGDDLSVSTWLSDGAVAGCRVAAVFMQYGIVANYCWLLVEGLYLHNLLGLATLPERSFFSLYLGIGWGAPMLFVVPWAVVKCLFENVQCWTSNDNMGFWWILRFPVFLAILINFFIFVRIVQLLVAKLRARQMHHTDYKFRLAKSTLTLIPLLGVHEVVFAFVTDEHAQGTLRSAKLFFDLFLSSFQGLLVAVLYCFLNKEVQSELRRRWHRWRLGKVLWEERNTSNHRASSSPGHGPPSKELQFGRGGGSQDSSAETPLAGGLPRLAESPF

GLP-1 receptor = target: T2, GLP-1 receptor (Homo sapiens, UniProt P43220); test: cAMP synthesis functional assay (firefly luciferase reporter in HEK293 cells), GLP-1 receptor
T2 construct: expressed in transfected cells; host or cells: HEK293
T2 sequence (P43220 24-463, species assumed): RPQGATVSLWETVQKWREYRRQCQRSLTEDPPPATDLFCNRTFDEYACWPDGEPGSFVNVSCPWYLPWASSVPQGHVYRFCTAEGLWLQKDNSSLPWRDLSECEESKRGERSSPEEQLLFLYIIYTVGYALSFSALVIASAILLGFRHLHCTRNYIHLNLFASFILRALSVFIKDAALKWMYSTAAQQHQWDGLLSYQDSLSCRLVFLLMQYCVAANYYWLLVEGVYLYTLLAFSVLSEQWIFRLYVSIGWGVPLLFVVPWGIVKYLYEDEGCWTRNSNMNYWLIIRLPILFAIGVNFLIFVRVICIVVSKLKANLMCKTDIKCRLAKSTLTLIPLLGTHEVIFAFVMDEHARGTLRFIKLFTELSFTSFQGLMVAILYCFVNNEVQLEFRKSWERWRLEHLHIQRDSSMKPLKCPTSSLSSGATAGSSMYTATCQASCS

GIP receptor = target: T3, GIP receptor (Homo sapiens, UniProt P48546); test: cAMP synthesis functional assay (firefly luciferase reporter in HEK293 cells), GIP receptor
T3 construct: expressed in transfected cells; host or cells: HEK293
T3 sequence (P48546 22-466): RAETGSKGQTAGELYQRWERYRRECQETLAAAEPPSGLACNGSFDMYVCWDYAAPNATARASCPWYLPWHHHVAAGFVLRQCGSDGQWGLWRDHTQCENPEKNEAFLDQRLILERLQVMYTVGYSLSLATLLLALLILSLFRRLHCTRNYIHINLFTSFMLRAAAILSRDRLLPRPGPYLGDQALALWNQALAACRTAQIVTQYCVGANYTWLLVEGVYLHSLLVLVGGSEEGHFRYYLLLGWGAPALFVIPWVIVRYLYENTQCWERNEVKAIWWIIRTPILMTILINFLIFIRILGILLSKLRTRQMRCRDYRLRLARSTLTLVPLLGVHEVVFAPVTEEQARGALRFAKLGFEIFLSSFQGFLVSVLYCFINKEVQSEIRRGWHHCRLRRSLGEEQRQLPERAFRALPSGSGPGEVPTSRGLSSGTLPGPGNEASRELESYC

[1] = Table 4, relative to the native hormone
[2] = relative to the standard (Std.) EC50 of the same run
[3] = Table 1, relative to the native hormone of the indicated receptor
[4] = Glucagon Receptor EC50, cAMP luciferase reporter assay as in Example 16
[5] = GLP-1 Receptor EC50, cAMP luciferase reporter assay as in Example 16
[6] = GIP Receptor EC50, cAMP luciferase reporter assay as in Example 16

Compound: mt-227: pegylated monomer with lactam bridge between Glu16 and Lys20, PEG attached via dipeptide spacer (Y[Aib]QGTFTSDYSIYLDEQAAKEFVNWLLAGGPSSGAPPPSK([Arg-Ac‑Cys(PEG 40 kDa)])-NH2; lactam 16-20)
Glucagon Receptor relative activity (glucagon receptor; [1]): 1.27%
GLP-1 Receptor relative activity (GLP-1 receptor; [1]): 36.25%
GIP Receptor relative activity (GIP receptor; [1]): 1.29%

Glucagon Receptor relative activity (glucagon receptor; [2]): 16.65%
EC50 (GLP-1 receptor; read-out: GLP-1 Receptor EC50, cAMP luciferase reporter assay as in Example 16): 0.216 nM
GLP-1 Receptor relative activity (GLP-1 receptor; [2]): 5.13%
EC50 (GIP receptor; read-out: GIP Receptor EC50, cAMP luciferase reporter assay as in Example 16): 0.4 nM
GIP Receptor relative activity (GIP receptor; [2]): 6.68%
Compound: mt-281 (Y[Aib]QGTFTSDYSIYLDKQAA[Aib]EFVC(PEG 40 kDa)WLLAG-NH2)

EC50 (glucagon receptor; Glucagon Receptor EC50, nM, Table 1): 0.11 nM
Glucagon Receptor relative activity (glucagon receptor; [3]): 172.73%
GLP-1 Receptor relative activity (GLP-1 receptor; [3]): 22.22%
GIP Receptor relative activity (GIP receptor; [3]): 0.83%
Compound: CC[C@H](C)[C@H](NC(=O)[C@H](Cc1ccccc1)NC(=O)[C@H](CCC(=O)O)NC(=O)[C@@H]1CCCCNC(=O)CC[C@H](NC(=O)[C@H](CC(=O)O)NC(=O)[C@H](CC(C)C)NC(=O)[C@H](Cc2ccc(O)cc2)NC(=O)[C@H](CCCCN)NC(=O)[C@H](CO)NC(=O)[C@H](Cc2ccc(O)cc2)NC(=O)[C@H](CC(=O)O)NC(=O)[C@H](CO)NC(=O)[C@@H](NC(=O)[C@H](Cc2ccccc2)NC(=O)[C@@H](NC(=O)CNC(=O)[C@H](CCC(N)=O)NC(=O)[C@H](CO)NC(=O)[C@@H](N)Cc2c[nH]cn2)[C@@H](C)O)[C@@H](C)O)C(=O)N[C@@H]([C@@H](C)CC)C(=O)N[C@@H](Cc2c[nH]cn2)C(=O)N[C@@H](CCC(N)=O)C(=O)N1)C(=O)N[C@@H](C)C(=O)N[C@@H](Cc1c[nH]c2ccccc12)C(=O)N[C@@H](CC(C)C)C(=O)N[C@@H](CCSC)C(=O)N[C@@H](CC(N)=O)C(=O)N[C@H](C(N)=O)[C@@H](C)O [mt-61]

Compound: CCCCCCCCCCCCCCCC(=O)NCCCC[C@H](NC(=O)[C@H](CO)NC(=O)[C@@H]1CCCN1C(=O)[C@@H]1CCCN1C(=O)[C@@H]1CCCN1C(=O)[C@H](C)NC(=O)CNC(=O)[C@H](CO)NC(=O)[C@H](CO)NC(=O)[C@@H]1CCCN1C(=O)CNC(=O)CNC(=O)[C@H](C)NC(=O)[C@H](CC(C)C)NC(=O)[C@H](CC(C)C)NC(=O)[C@H](Cc1c[nH]c2ccccc12)NC(=O)[C@H](CC(N)=O)NC(=O)[C@@H](NC(=O)[C@H](Cc1ccccc1)NC(=O)[C@H](CCC(=O)O)NC(=O)C(C)(C)NC(=O)[C@H](C)NC(=O)[C@H](C)NC(=O)[C@H](CCC(N)=O)NC(=O)[C@H](CCCCN)NC(=O)[C@H](CC(=O)O)NC(=O)[C@H](CC(C)C)NC(=O)[C@H](Cc1ccc(O)cc1)NC(=O)[C@@H](NC(=O)[C@H](CO)NC(=O)[C@H](Cc1ccc(O)cc1)NC(=O)[C@H](CC(=O)O)NC(=O)[C@H](CO)NC(=O)[C@@H](NC(=O)[C@H](Cc1ccccc1)NC(=O)[C@@H](NC(=O)CNC(=O)[C@H](CCC(N)=O)NC(=O)C(C)(C)NC(=O)[C@@H](N)Cc1ccc(O)cc1)[C@@H](C)O)[C@@H](C)CC)[C@@H](C)CC)C(C)C)C(N)=O [mt-358] (H-Y[Aib]QGTFISDYSIYLDKQAA[Aib]EFVNWLLAGGPSSGAPPPSK(Palmitoyl)-NH2; N-terminus assumed)
Glucagon Receptor relative activity (glucagon receptor; [1]): 1266.00%
GLP-1 Receptor relative activity (GLP-1 receptor; [1]): 13.04%
EC50 (GIP receptor; GIP Receptor EC50, nM, Table 4): 0.0045 nM
GIP Receptor relative activity (GIP receptor; [1]): 305.62%

Compound: CCCCCCCCCCCCCC(=O)NCCCC[C@@H](NC(=O)[C@H](CO)NC(=O)[C@@H]1CCCN1C(=O)[C@@H]1CCCN1C(=O)[C@@H]1CCCN1C(=O)[C@H](C)NC(=O)CNC(=O)[C@H](CO)NC(=O)[C@H](CO)NC(=O)[C@@H]1CCCN1C(=O)CNC(=O)CNC(=O)[C@H](C)NC(=O)[C@H](CC(C)C)NC(=O)[C@H](CC(C)C)NC(=O)[C@H](Cc1c[nH]c2ccccc12)NC(=O)[C@H](CS)NC(=O)[C@@H](NC(=O)[C@H](Cc1ccccc1)NC(=O)[C@H](CCC(=O)O)NC(=O)C(C)(C)NC(=O)[C@H](C)NC(=O)[C@H](C)NC(=O)[C@H](CCC(N)=O)NC(=O)[C@H](CCCCN)NC(=O)[C@H](CC(=O)O)NC(=O)[C@H](CC(C)C)NC(=O)[C@H](Cc1ccc(O)cc1)NC(=O)[C@@H](NC(=O)[C@H](CO)NC(=O)[C@H](Cc1ccc(O)cc1)NC(=O)[C@H](CC(=O)O)NC(=O)[C@H](CO)NC(=O)[C@@H](NC(=O)[C@H](Cc1ccccc1)NC(=O)[C@@H](NC(=O)CNC(=O)[C@H](CCC(=O)O)NC(=O)C(C)(C)NC(=O)[C@@H](N)Cc1ccc(O)cc1)[C@@H](C)O)[C@@H](C)O)[C@@H](C)CC)C(C)C)C(N)=O [mt-333]
EC50 (glucagon receptor; [4]): 0.691 nM
Glucagon Receptor relative activity (glucagon receptor; [2]): 2.80%
EC50 (GLP-1 receptor; [5]): 0.0028 nM
GLP-1 Receptor relative activity (GLP-1 receptor; [2]): 85.71%
EC50 (GIP receptor; [6]): 0.0034 nM
GIP Receptor relative activity (GIP receptor; [2]): 226.47%

EC50 (glucagon receptor; [4]): 7.94 nM
Glucagon Receptor relative activity (glucagon receptor; [2]): 0.36%
EC50 (GLP-1 receptor; [5]): 0.0158 nM
GLP-1 Receptor relative activity (GLP-1 receptor; [2]): 37.34%
GIP Receptor relative activity (GIP receptor; [2]): 83.61%
Compound: CCCCCCCCCCCCCCCC(=O)NCCCC[C@H](NC(=O)[C@H](CC(=O)O)NC(=O)[C@H](CO)NC(=O)[C@@H](NC(=O)[C@H](Cc1ccccc1)NC(=O)[C@@H](NC(=O)CNC(=O)[C@H](CCC(=O)O)NC(=O)C(C)(C)NC(=O)[C@@H](N)Cc1ccc(O)cc1)[C@@H](C)O)[C@@H](C)O)C(=O)N[C@@H](CO)C(=O)N[C@H](C(=O)N[C@@H](Cc1ccc(O)cc1)C(=O)N[C@@H](CC(C)C)C(=O)N[C@@H](CC(=O)O)C(=O)N[C@@H](CCCCN)C(=O)N[C@@H](CCC(N)=O)C(=O)N[C@@H](C)C(=O)N[C@@H](C)C(=O)NC(C)(C)C(=O)N[C@@H](CCC(=O)O)C(=O)N[C@@H](Cc1ccccc1)C(=O)N[C@H](C(=O)N[C@@H](CC(N)=O)C(=O)N[C@@H](Cc1c[nH]c2ccccc12)C(=O)N[C@@H](CC(C)C)C(=O)N[C@@H](CC(C)C)C(=O)N[C@@H](C)C(=O)NCC(N)=O)C(C)C)[C@@H](C)CC [mt-283] (H-Y[Aib]EGTFTSDK(Palmitoyl)SIYLDKQAA[Aib]EFVNWLLAG-NH2; N-terminus assumed)

Compound: CC[C@H](C)[C@H](NC(=O)[C@H](CO)NC(=O)[C@H](Cc1ccc(O)cc1)NC(=O)[C@H](CC(=O)O)NC(=O)[C@H](CO)NC(=O)[C@@H](NC(=O)[C@H](Cc1ccccc1)NC(=O)[C@@H](NC(=O)CNC(=O)[C@H](CCC(=O)O)NC(=O)C(C)(C)NC(=O)[C@@H](N)Cc1ccc(O)cc1)[C@@H](C)O)[C@@H](C)O)C(=O)N[C@@H](Cc1ccc(O)cc1)C(=O)N[C@@H](CC(C)C)C(=O)N[C@@H](CC(=O)O)C(=O)N[C@@H](CCCCN)C(=O)N[C@@H](CCC(N)=O)C(=O)N[C@@H](C)C(=O)N[C@@H](C)C(=O)NC(C)(C)C(=O)N[C@@H](CCC(=O)O)C(=O)N[C@@H](Cc1ccccc1)C(=O)N[C@H](C(=O)N[C@@H](CS)C(=O)N[C@@H](Cc1c[nH]c2ccccc12)C(=O)N[C@@H](CC(C)C)C(=O)N[C@@H](CC(C)C)C(=O)N[C@@H](C)C(=O)NCC(=O)NCC(=O)N1CCC[C@H]1C(=O)N[C@@H](CO)C(=O)N[C@@H](CO)C(=O)NCC(=O)N[C@@H](C)C(=O)N1CCC[C@H]1C(=O)N1CCC[C@H]1C(=O)N1CCC[C@H]1C(=O)N[C@@H](CO)C(=O)N[C@@H](CCCCN)C(N)=O)C(C)C [mt-308]
EC50 (glucagon receptor; [4]): 12.2 nM
Glucagon Receptor relative activity (glucagon receptor; [2]): 0.39%
GLP-1 Receptor relative activity (GLP-1 receptor; [2]): 68.35%
EC50 (GIP receptor; [6]): 0.0057 nM
GIP Receptor relative activity (GIP receptor; [2]): 285.96%

Compound: CC[C@H](C)[C@H](NC(=O)[C@H](CO)NC(=O)[C@H](Cc1ccc(O)cc1)NC(=O)[C@H](CC(=O)O)NC(=O)[C@H](CO)NC(=O)[C@@H](NC(=O)[C@H](Cc1ccccc1)NC(=O)[C@@H](NC(=O)CNC(=O)[C@H](CCC(N)=O)NC(=O)[C@H](CO)NC(=O)[C@@H](N)Cc1ccc(O)cc1)[C@@H](C)O)[C@@H](C)O)C(=O)N[C@@H](Cc1ccc(O)cc1)C(=O)N[C@@H](CC(C)C)C(=O)N[C@@H](CC(=O)O)C(=O)N[C@@H](CCC(=O)O)C(=O)N[C@@H](CCC(N)=O)C(=O)N[C@@H](C)C(=O)N[C@@H](C)C(=O)N[C@H]1CCCCNC(=O)CC[C@@H](C(=O)N[C@@H](Cc2c[nH]c3ccccc23)C(=O)N[C@@H](CC(C)C)C(=O)N[C@@H](CC(C)C)C(=O)N[C@@H](C)C(=O)NCC(=O)NCC(=O)N2CCC[C@H]2C(=O)N[C@@H](CO)C(=O)N[C@@H](CO)C(=O)NCC(=O)N[C@@H](C)C(=O)N2CCC[C@H]2C(=O)N2CCC[C@H]2C(=O)N2CCC[C@H]2C(=O)N[C@@H](CO)C(N)=O)NC(=O)[C@H](C(C)C)NC(=O)[C@H](Cc2ccccc2)NC(=O)[C@H](CCC(=O)O)NC1=O [mt-156] (H-YSQGTFTSDYSIYLDEQAAKEFVEWLLAGGPSSGAPPPS-NH2; lactam 20-24; N-terminus assumed)
Glucagon Receptor relative activity (glucagon receptor; [3]): 6.10%
GLP-1 Receptor relative activity (GLP-1 receptor; [3]): 12.20%
GIP Receptor relative activity (GIP receptor; [3]): 4.41%
